The record followed here is US9126947B2, “Substituted pyridazine carboxamide compounds” (Xcovery Holding Company LLC, priority 2010, dated 2015).

The target in one data set is c-Met (Homo sapiens (Human), UniProt P08581). Kind of data set: Ambit kinase binding assay (c-Met). The procedure: Assays were performed as described in Fabian et al. (2005) Nature Biotechnology, vol. 23, p. 329 and in Karaman et al. (2008) Nature Biotechnology, vol. 26, p. 127.
(§1) For most assays, kinase-tagged T7 phage strains were grown in parallel in 24-well blocks in an E. coli host derived from the BL21 strain. E. coli were grown to log-phase and infected with T7 phage from a frozen stock (multiplicity of infection 0.1) and incubated with shaking at 32° C. until lysis (˜90 minutes). The lysates were centrifuged (6,000×g) and filtered ([…]) to remove cell debris. The remaining kinases were produced in HEK-293 cells and subsequently tagged with DNA for qPCR detection. Streptavidin-coated magnetic beads were treated with biotinylated small molecule ligands for 30 minutes at room temperature to generate affinity resins for kinase assays. The liganded beads were blocked with excess biotin and washed with blocking buffer (SeaBlock (Pierce), 1% BSA, 0.05% Tween 20, 1 mM DTT) to remove unbound ligand and to reduce non-specific phage binding. […] Test compounds were prepared as 40× stocks in 100% DMSO and directly diluted into the assay. All reactions were performed in polypropylene 384-well plates in a final volume of 0.04 ml. The assay plates were incubated at room temperature with shaking for 1 hour and the affinity beads were washed with wash buffer (1×PBS, 0.05% Tween 20). The beads were then re-suspended in elution buffer (1×PBS, 0.05% Tween 20, 0.5 mM non-biotinylated affinity ligand) and incubated at room temperature with shaking for 30 minutes. The kinase concentration in the eluates was measured by qPCR.

For the next data set, the target named is ALK (Homo sapiens (Human), UniProt Q9UM73). Put plainly: Ambit kinase binding assay (ALK). The settings on record: read-out: ALK inhibitory activities in the Ambit assay (IC50). Here is the method:
as §1, with “Streptavidin-coated magnetic beads were treated with biotinylated small molecule ligands for 30 minutes at room temperature to generate affinity resins for kinase assays.” left out, “The assay plates were incubated at room temperature with shaking for 1 hour and the affinity beads were washed with wash buffer (1×PBS, 0.05% Tween 20). The beads were then re-suspended in elution buffer (1×PBS, 0.05% Tween 20, 0.5 mM non-biotinylated affinity ligand) and incubated at room temperature with shaking for 30 minutes.” left out

Data set [1] can be described thus: Human microsomal stability. It is filed as in vitro ADME. The settings on record: compared with Example 25 of WO 2009/154769; 1 μM, 1 mg/mL microsomes. The procedure: Pooled human liver microsomes (1 mg/mL) are incubated at 37° C. in phosphate buffer (pH 7.4) with the test compound (1 μM). The reaction is started with the addition of NADPH. (1 mM final concentration). Incubations are stopped after 0, 5, 10, 20, 40, 60 minutes with the addition of organic solvent. Quenched samples are analyzed for unchanged test compound by LC/MS/MS detection. Percent turnover is determined by the ratio of the amount (peak area) of unchanged test compound remaining in incubated samples to the amount of unchanged test compound in non-incubated samples (0 minutes). Half-life is calculated based on the percent turnover data.

The test system of a further data set is H2228 tumor cells. Kind of data set: Cell viability assay of tumor cells with ALK fusion proteins (H2228). The format is cell-based. The settings on record: Homo sapiens, NCI-H2228; H2228, 72 hours post drug addition; read-out: Inhibition of H2228 tumor cell growth (IC50). Here is the method:
(§2) At 72 hours post drug addition, Cell Titer Blue Reagent (Promega, Madison, Wis.) was added and fluorescence was measured on a Spectramax spectrophotometer (Molecular Devices, Sunnyvale, Calif.) according to the manufacturer's instructions. All experimental points were set up in hextuplicate replicates and were performed at least two independent times. IC50's were calculated using GraphPad Prism version 5 for Windows. The curves were fit using a nonlinear regression model with a log (inhibitor) vs. response formula.

The next data set deals with H3122 tumor cells. Kind of data set: Cell viability assay of tumor cells with ALK fusion proteins (H3122). The format is cell-based. The settings on record: Homo sapiens, NCI-H3122; H3122, 72 hours post drug addition; read-out: Inhibition of H3122 tumor cell growth (IC50). The procedure:
as §2

For the next data set, the system named is H3122 cells. Put plainly: Cell apoptosis assay of tumor cells with ALK fusion proteins. The format is cell-based. The settings on record: compared with PF-2341066 at the same concentration, 72 h, FIG. 1. The procedure: For apoptosis experiments, cells were seeded in 12 well plates at 25% confluency and treated in triplicate with ALK TKI. At 72 h post drug addition, cells were collected, washed in PBS, and stained with annexin V and propidium iodide according to the manufacturer's instructions (Vybrant Apooptosis Assay Kit, Invitrogen, Carlsbad, Calif.). Data were collected on a FACSCanto II (BD Biosciences, San Jose, Calif.) and processed using WinList flow cytometry analysis software (Verity Software, Topsham, Me.).

The nature of the next data set: Brain penetration. It is filed as in vivo. To be noted: mice, two hours after dosing; compared with Example 1. The procedure:
To determine if a compound can cross the blood-brain-barrier (BBB), mice are dosed with the test compound. Two hours after dosing, mice are sacrificed and blood and brain tissues are collected and analyzed for test compound concentration. Brain penetration is defined as ratio of compound concentration in the brain tissues to that in plasma.

Data set [2] concerns SH-SY5Y intracranial tumor. Kind of data set: SH-SY5Y intracranial tumor model. The format is in vivo, Balb/C nude mice. The settings on record: oral gavage, vehicle 25 days. The procedure: Balb/C nude mice were anesthetized by i.p. injection of pentobarbital sodium (100 mg/kg body weight). One million SH-SY5Y cells in a volume of 10 μl full-culture medium were injected into the caudate putamen region using a small animal stereotactic apparatus. On the 7th day after implantation, the tumor-bearing mice were assigned into 4 groups, PF-1066, Example 18 low dose, Example 18 high dose, and vehicle were given twice daily (BID) by oral gavage, treatment was stopped until the animal is dead. Animal survival and body weight were observed and recorded.

Sequence of ALK (Q9UM73 19-1620): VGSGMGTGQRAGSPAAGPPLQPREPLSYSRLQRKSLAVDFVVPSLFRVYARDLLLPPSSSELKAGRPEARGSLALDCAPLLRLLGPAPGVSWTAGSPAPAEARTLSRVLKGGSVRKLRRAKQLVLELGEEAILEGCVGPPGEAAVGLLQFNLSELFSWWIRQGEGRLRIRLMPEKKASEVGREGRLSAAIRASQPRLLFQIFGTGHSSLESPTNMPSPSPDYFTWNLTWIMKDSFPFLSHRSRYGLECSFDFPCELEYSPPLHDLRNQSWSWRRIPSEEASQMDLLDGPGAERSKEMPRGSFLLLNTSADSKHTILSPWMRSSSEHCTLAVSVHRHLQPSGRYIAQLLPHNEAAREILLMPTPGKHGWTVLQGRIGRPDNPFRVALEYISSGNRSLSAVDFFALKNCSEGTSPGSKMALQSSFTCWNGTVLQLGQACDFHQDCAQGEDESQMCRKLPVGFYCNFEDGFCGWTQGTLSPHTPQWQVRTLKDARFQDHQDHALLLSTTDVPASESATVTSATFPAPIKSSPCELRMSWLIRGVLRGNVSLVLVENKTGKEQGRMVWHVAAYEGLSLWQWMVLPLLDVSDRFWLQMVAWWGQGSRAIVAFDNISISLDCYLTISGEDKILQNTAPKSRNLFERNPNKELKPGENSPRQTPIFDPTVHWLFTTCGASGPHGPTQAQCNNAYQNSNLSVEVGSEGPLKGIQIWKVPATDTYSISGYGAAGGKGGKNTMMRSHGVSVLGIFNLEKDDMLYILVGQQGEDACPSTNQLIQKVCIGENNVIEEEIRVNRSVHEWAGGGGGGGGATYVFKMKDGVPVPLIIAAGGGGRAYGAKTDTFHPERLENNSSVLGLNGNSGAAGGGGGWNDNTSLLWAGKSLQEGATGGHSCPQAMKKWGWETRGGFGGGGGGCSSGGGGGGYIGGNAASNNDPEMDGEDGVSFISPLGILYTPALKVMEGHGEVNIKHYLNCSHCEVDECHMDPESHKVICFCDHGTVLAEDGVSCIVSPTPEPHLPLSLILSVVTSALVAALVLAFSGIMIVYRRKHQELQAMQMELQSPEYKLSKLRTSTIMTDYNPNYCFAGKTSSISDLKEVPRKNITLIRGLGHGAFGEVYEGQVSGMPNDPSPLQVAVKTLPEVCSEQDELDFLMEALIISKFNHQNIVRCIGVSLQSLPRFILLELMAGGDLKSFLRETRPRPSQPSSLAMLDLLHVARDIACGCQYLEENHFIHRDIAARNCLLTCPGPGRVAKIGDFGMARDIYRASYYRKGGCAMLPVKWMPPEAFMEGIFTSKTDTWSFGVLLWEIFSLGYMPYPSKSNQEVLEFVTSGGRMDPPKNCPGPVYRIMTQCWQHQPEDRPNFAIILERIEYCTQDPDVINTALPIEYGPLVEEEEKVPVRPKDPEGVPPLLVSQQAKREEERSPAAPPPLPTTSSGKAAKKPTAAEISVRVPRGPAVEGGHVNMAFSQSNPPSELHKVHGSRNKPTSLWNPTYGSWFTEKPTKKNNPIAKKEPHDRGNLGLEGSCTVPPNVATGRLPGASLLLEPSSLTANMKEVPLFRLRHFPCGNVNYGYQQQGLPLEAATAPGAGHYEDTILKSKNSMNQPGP
Sequence of c-Met (P08581 25-1390): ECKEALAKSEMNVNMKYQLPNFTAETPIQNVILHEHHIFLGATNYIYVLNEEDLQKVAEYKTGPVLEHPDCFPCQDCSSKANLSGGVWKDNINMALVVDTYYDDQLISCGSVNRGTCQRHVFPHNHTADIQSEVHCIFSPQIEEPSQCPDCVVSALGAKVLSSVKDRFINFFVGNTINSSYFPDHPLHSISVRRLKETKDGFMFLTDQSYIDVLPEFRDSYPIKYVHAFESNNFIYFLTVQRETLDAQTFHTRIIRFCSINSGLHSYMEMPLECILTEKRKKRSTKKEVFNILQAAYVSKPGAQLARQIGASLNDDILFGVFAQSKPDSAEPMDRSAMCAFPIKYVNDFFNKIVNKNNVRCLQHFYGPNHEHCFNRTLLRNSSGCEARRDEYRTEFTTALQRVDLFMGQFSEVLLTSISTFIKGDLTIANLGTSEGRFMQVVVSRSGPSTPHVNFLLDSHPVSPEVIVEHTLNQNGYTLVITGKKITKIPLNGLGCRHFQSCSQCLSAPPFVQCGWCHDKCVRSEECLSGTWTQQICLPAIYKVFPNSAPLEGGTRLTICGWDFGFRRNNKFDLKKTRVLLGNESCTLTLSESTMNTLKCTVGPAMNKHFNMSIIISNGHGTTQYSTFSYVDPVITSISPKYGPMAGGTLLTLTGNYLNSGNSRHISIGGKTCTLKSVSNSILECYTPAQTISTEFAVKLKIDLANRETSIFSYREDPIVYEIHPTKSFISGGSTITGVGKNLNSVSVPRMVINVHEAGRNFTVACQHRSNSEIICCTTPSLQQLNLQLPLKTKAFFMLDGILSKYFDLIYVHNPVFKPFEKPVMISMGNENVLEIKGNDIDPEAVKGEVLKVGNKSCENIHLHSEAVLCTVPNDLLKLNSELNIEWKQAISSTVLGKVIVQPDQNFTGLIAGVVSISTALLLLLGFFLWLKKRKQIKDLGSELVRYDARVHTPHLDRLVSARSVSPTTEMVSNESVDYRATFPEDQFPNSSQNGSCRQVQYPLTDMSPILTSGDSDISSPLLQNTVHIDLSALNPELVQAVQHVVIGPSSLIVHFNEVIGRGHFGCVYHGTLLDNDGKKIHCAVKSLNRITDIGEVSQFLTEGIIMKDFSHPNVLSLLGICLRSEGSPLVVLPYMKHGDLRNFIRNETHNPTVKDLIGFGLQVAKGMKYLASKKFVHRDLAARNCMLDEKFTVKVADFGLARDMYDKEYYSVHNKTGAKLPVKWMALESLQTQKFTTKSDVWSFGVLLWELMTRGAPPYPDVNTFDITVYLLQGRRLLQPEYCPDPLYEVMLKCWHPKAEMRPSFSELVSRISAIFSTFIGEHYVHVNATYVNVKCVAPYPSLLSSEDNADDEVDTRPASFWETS

With `CC(Oc1cc(C(=O)Nc2ccncc2)nnc1N)c1c(Cl)ccc(F)c1Cl` (centres unmarked) [a, reference compound], the IC50 on c-Met is < 20 nM; at ALK it was > 10 nM.
Regarding `C[C@@H](Oc1cc(C(=O)Nc2ccc(C(=O)N3CCNC(C)(C)C3)cc2)nnc1N)c1c(Cl)ccc(F)c1Cl` [Example 17, {5-[(1R)-1-(2,6-dichloro-3-fluorophenyl)ethoxy]-6-aminopyridazin-3-yl}-N-{4-[(3,3-dimethylpiperazinyl)carbonyl]phenyl}carboxamide], on ALK, the IC50 was < 1 nM.
On the same count and under the same terms, next, `C[C@H](Oc1cc(C(=O)Nc2ccc(C(=O)N3CCN(C)CC3)cc2)nnc1N)c1c(Cl)ccc(F)c1Cl` [Example 2, {5-[(1S)-1-(2,6-dichloro-3-fluorophenyl)ethoxy]-6-aminopyridazin-3-yl}-N-{4-[(4-methylpiperazinyl)carbonyl]phenyl}carboxamide]: > 50 nM.
With `COc1ccc(NC(=O)c2cc(OC(C)c3c(Cl)ccc(F)c3Cl)c(N)nn2)cc1` (centres unmarked) [b, reference compound], the IC50 on c-Met was < 20 nM; at ALK, > 10 nM.
`C[C@@H](Oc1cc(C(=O)Nc2ccc(C(=O)N3CCCNCC3)cc2)nnc1N)c1c(Cl)ccc(F)c1Cl` [Example 16, {5-[(1R)-1-(2,6-dichloro-3-fluorophenyl)ethoxy]-6-aminopyridazin-3-yl}-N-[4-(1,4-diazaperhydroepinylcarbonyl)phenyl]carboxamide]: the “Half-life in human liver microsomes” value in data set [1] is listed as “longer half-life”. For the same molecule, the IC50 with H2228 tumor cells is < 100 nM; with H3122 tumor cells it was < 30 nM; at ALK, < 1 nM.
On to `CC(Oc1cc(C(=O)Nc2ccc(N3CCOCC3)cc2)nnc1N)c1c(Cl)ccc(F)c1Cl` (centres unmarked) [c, reference compound], for which the IC50 was < 20 nM on c-Met and > 10 nM on ALK.
For `C[C@@H](Oc1cc(C(=O)Nc2ccc(C(=O)N3CCCN(C)CC3)cc2)nnc1N)c1c(Cl)ccc(F)c1Cl` [Example 15, {5-[(1R)-1-(2,6-dichloro-3-fluorophenyl)ethoxy]-6-aminopyridazin-3-yl}-N-{4-[(4-methyl(1,4-diazaperhydroepinyl))carbonyl]phenyl}carboxamide], on ALK, the IC50 was < 1 nM.
As to `C[C@@H](Oc1cc(C(=O)Nc2ccc(C(=O)N3CCN(C)CC3)cc2)nnc1N)c1c(Cl)ccc(F)c1Cl` [Example 1, {5-[(1R)-1-(2,6-dichloro-3-fluorophenyl)ethoxy]-6-aminopyridazin-3-yl}-N-{4-[(4-methylpiperazinyl)carbonyl]phenyl}carboxamide], the “Induction of apoptosis in H3122 cells” value with H3122 cells is recorded as “more effective”. Also, the IC50 in the data set on H2228 tumor cells was < 100 nM; in the data set with H3122 tumor cells, < 50 nM; at ALK, < 1 nM.
As for `C[C@@H]1CN(C(=O)c2ccc(NC(=O)c3cc(O[C@H](C)c4c(Cl)ccc(F)c4Cl)c(N)nn3)cc2)C[C@H](C)N1` [Example 18, {5-[(1R)-1-(2,6-dichloro-3-fluorophenyl)ethoxy]-6-aminopyridazin-3-yl}-N-{4-[((3S,5R)-3,5-dimethylpiperazinyl)carbonyl]phenyl}carboxamide], in data set [1], the “Half-life in human liver microsomes” value is on record as “longer half-life”. Moreover, in “Brain penetration”, the “Brain penetration (ratio of concentration in brain tissues to plasma)” value is given as “higher brain penetration”. Moreover, the 50% inhibitory concentration (IC50) with H2228 tumor cells was < 100 nM; with H3122 tumor cells it was < 30 nM; at ALK, < 1 nM. Further, the “Median survival time (MST)” value in data set [2] (25 mg/kg BID) is on record as 25 days; in data set [2] (50 mg/kg BID), 34.5 days.
Take `C[C@@H](Oc1cc(-c2cnn(C3CCNCC3)c2)cnc1N)c1c(Cl)ccc(F)c1Cl` [PF-2341066, crizotinib, reference compound]: the “Median survival time (MST)” value in data set [2] (50 mg/kg BID) came to 28 days.
Take `C[C@@H](Oc1cc(C(=O)Nc2ccc(C(=O)N3CCN4CCCC4C3)cc2)nnc1N)c1c(Cl)ccc(F)c1Cl` (stereo partly drawn) [Example 13, {5-[(1R)-1-(2,6-dichloro-3-fluorophenyl)ethoxy]-6-aminopyridazin-3-yl}-N-{4-[(3,6-diazabicyclo[4.3.0]non-3-yl)carbonyl]phenyl}carboxamide]: the concentration for half-maximal inhibition (IC50) at ALK is < 1 nM.

In general, IC50 refers to the concentration that gives 50% inhibition.
